# Source: ChEMBL document CHEMBL2163213, “Synthesis and bioevaluation of novel 3,4,5-trimethoxybenzylbenzimidazole derivatives that inhibit Helicobacter pylori-induced pathogenesis in human gastric epithelial cells” (Eur J Med Chem, 2012)
# Calls of active or inactive are those of the source. The calls are words filed in the database; no cut-off is given here.
# Columns and labels:
# [1] = Antimicrobial activity against Helicobacter pylori 26695 ATCC 700392 at 100 ug/ml by disk agar diffusion method; type: functional; settings: read-out: DIZ
# AGS [2] = experiment: Cytotoxicity against human AGS cells assessed as cell viability by MTT assay; type: cell-based
# Helicobacter pylori [3] = experiment: Antimicrobial activity against metronidazole and clarithromycin-resistant Helicobacter pylori v1254 at pH 5 by microdilution method; type: functional
# [4] = Antimicrobial activity against Helicobacter pylori 26695 ATCC 700392 at 800 ug/ml by disk agar diffusion method; type: functional; settings: read-out: DIZ
# Helicobacter pylori [5] = experiment: Inhibition of Helicobacter pylori invasion to human AGS cells at 20 ug/ml after 6 hrs by gentamicin assay relative to control; type: functional
# Helicobacter pylori [6] = experiment: Antimicrobial activity against metronidazole and clarithromycin-resistant Helicobacter pylori v633 at pH 7 by microdilution method; type: functional
# [7] = Antimicrobial activity against Helicobacter pylori 26695 ATCC 700392 at pH 5 by microdilution method; type: functional
# Helicobacter pylori [8] = experiment: Inhibition of Helicobacter pylori adhesion to human AGS cells at 20 ug/ml after 6 hrs by gentamicin assay relative to control; type: functional
# [9] = Antimicrobial activity against Helicobacter pylori 26695 ATCC 700392 at pH 7 by microdilution method; type: functional
# Helicobacter pylori [10] = experiment: Antimicrobial activity against metronidazole and clarithromycin-resistant Helicobacter pylori v633 at pH 5 by microdilution method; type: functional
# Helicobacter pylori [11] = experiment: Antimicrobial activity against metronidazole and clarithromycin-resistant Helicobacter pylori v633 at pH 8 by microdilution method; type: functional
# Helicobacter pylori [12] = experiment: Antimicrobial activity against metronidazole and clarithromycin-resistant Helicobacter pylori v1254 at pH 8 by microdilution method; type: functional
# [13] = Antimicrobial activity against Helicobacter pylori 26695 ATCC 700392 at pH 8 by microdilution method; type: functional
# Helicobacter pylori [14] = experiment: Antimicrobial activity against metronidazole and clarithromycin-resistant Helicobacter pylori v1254 at pH 7 by microdilution method; type: functional
# AGS [15] = experiment: Inhibition of Helicobacter pylori 26695 ATCC 700392 cytotoxin A-induced vacuolation in human AGS cells after 24 hrs by neutral red uptake assay; type: functional, cell-based
# AGS [16] = experiment: Inhibition of NFkappaB activation expressed in human AGS cells infected with Helicobacter pylori at 20 ug/ml relative to control; type: cell-based
# AGS [17] = experiment: Inhibition of NFkappaB activation expressed in human AGS cells infected with Helicobacter pylori assessed as inhibition of IL-8 production at 20 ug/ml relative to control; type: cell-based
# Helicobacter pylori [18] = experiment: Inhibition of Helicobacter pylori adhesion to human AGS cells at 10 ug/ml after 6 hrs by gentamicin assay relative to control; type: functional
# Helicobacter pylori [19] = experiment: Antimicrobial activity against Helicobacter pylori infected in human AGS cells assessed as inhibition of CagA gene translocation at 20 ug/ml after 6 hrs by immunoblot analysis; type: functional
# Helicobacter pylori [20] = experiment: Inhibition of Helicobacter pylori invasion to human AGS cells at 10 ug/ml after 6 hrs by gentamicin assay relative to control; type: functional
# Helicobacter pylori [21] = experiment: Antimicrobial activity against Helicobacter pylori infected in human AGS cells assessed as inhibition of CagA gene translocation after 6 hrs by immunoblot analysis; type: functional, organism-based
# AGS [22] = experiment: Inhibition of NFkappaB activation expressed in human AGS cells infected with Helicobacter pylori at 10 ug/ml relative to control; type: cell-based
# Helicobacter pylori [23] = experiment: Antimicrobial activity against Helicobacter pylori infected in human AGS cells assessed as reduction of tyrosine phosphorylated CagA level translocation after 6 hrs by immunoblot analysis; type: functional, organism-based
# Helicobacter pylori [24] = experiment: Inhibition of Helicobacter pylori adhesion to human AGS cells at 5 ug/ml after 6 hrs by gentamicin assay relative to control; type: functional
# Helicobacter pylori [25] = experiment: Antimicrobial activity against Helicobacter pylori infected in human AGS cells assessed as reduction of tyrosine phosphorylated CagA level translocation at 20 ug/ml after 6 hrs by immunoblot analysis; type: functional
# Helicobacter pylori [26] = experiment: Inhibition of Helicobacter pylori 26695 ATCC 700392 CagA-induced pathogenesis in human AGS cells assessed as reduction of hummingbird phenotype of host cells after 6 hrs; type: functional, cell-based; settings: ATCC 700392 26695
# Helicobacter pylori [27] = experiment: Inhibition of Helicobacter pylori invasion to human AGS cells at 5 ug/ml after 6 hrs by gentamicin assay relative to control; type: functional
# Helicobacter pylori [28] = experiment: Inhibition of Helicobacter pylori 26695 ATCC 700392 CagA-induced pathogenesis in human AGS cells assessed as reduction of hummingbird phenotype of host cells at 20 ug/ml after 6 hrs; type: functional; settings: ATCC 700392 26695, AGS
# [29] = Antimicrobial activity against Helicobacter pylori 26695 ATCC 700392 at 50 ug/ml by disk agar diffusion method; type: functional; settings: read-out: DIZ
structure (smiles),measurement,setting,value
COc1cc(Cn2c(-c3ccccc3)nc3cc(C)ccc32)cc(OC)c1OC,zone of inhibition at 100 µg/mL,[1],22 mm
same,Activity,AGS [2],Toxic
Cc1ncc([N+](=O)[O-])n1CCO [METRONIDAZOLE],MBC,Helicobacter pylori [3],100 µg/mL
same,zone of inhibition at 800 µg/mL,[4],7 mm
same,inhibition at 20 µg/mL,Helicobacter pylori [5],20%
same,MBC,Helicobacter pylori [6],50 µg/mL
same,MBC,[7],6.25 µg/mL
same,inhibition at 20 µg/mL,Helicobacter pylori [8],20%
same,MBC,[9],12.5 µg/mL
same,MBC,Helicobacter pylori [10],50 µg/mL
same,MBC,Helicobacter pylori [11],50 µg/mL
same,MBC,Helicobacter pylori [12],100 µg/mL
same,MBC,[13],12.5 µg/mL
same,MBC,Helicobacter pylori [14],100 µg/mL
COc1ccc(-c2nc3ccc(C)cc3n2Cc2cc(OC)c(OC)c(OC)c2)cc1,zone of inhibition at 100 µg/mL,[1],15 mm
COc1cc(Cn2c(-c3ccccc3)nc3cc(Cl)ccc32)cc(OC)c1OC,zone of inhibition at 100 µg/mL,[1],11 mm
c1ccc2[nH]cnc2c1 [BENZIMIDAZOLE],MBC,Helicobacter pylori [3],> 800 µg/mL
same,MBC,Helicobacter pylori [6],400 µg/mL
same,MBC,[7],> 800 µg/mL
same,MBC,[9],400 µg/mL
same,inhibition,AGS [15],Active
same,zone of inhibition at 100 µg/mL,[1],0 mm
same,MBC,Helicobacter pylori [10],> 800 µg/mL
same,inhibition,AGS [16],Active
same,MBC,Helicobacter pylori [11],400 µg/mL
same,MBC,Helicobacter pylori [12],400 µg/mL
same,MBC,[13],> 800 µg/mL
same,MBC,Helicobacter pylori [14],400 µg/mL
COc1cc(Cn2c(-c3ccccc3C)nc3cc(C)ccc32)cc(OC)c1OC,zone of inhibition at 100 µg/mL,[1],14 mm
COc1cc(Cn2c(-c3cccc(Cl)c3Cl)nc3cc(C)ccc32)cc(OC)c1OC,zone of inhibition at 100 µg/mL,[1],13 mm
COc1cc(Cn2c(-c3ccccc3)nc3ccc(C)cc32)cc(OC)c1OC,zone of inhibition at 100 µg/mL,[1],21 mm
same,Activity,AGS [2],Toxic
COc1cc(Cn2c(-c3cccc4ccccc34)nc3cc(C)ccc32)cc(OC)c1OC,zone of inhibition at 100 µg/mL,[1],12 mm
COc1cc(Cn2c(-c3ccccc3F)nc3cc(C)ccc32)cc(OC)c1OC,inhibition,AGS [17],85%
same,inhibition at 10 µg/mL,Helicobacter pylori [18],31%
same,MBC,Helicobacter pylori [3],12.5 µg/mL
same,inhibition at 20 µg/mL,Helicobacter pylori [5],52%
same,inhibition at 20 µg/mL,Helicobacter pylori [19],55%
same,inhibition at 10 µg/mL,Helicobacter pylori [20],28%
same,MBC,Helicobacter pylori [6],12.5 µg/mL
same,MBC,[7],25 µg/mL
same,inhibition at 20 µg/mL,Helicobacter pylori [8],58%
same,inhibition,Helicobacter pylori [21],Dose-dependent effect
same,inhibition,AGS [22],14%
same,MBC,[9],25 µg/mL
same,inhibition,Helicobacter pylori [23],Dose-dependent effect
same,inhibition,AGS [15],Dose-dependent effect
same,zone of inhibition at 100 µg/mL,[1],24 mm
same,MBC,Helicobacter pylori [10],12.5 µg/mL
same,inhibition,AGS [16],42%
same,inhibition at 5 µg/mL,Helicobacter pylori [24],6%
same,MBC,Helicobacter pylori [11],12.5 µg/mL
same,MBC,Helicobacter pylori [12],12.5 µg/mL
same,inhibition at 20 µg/mL,Helicobacter pylori [25],55%
same,inhibition,Helicobacter pylori [26],Dose-dependent effect
same,inhibition at 5 µg/mL,Helicobacter pylori [27],7%
same,MBC,[13],25 µg/mL
same,inhibition at 20 µg/mL,Helicobacter pylori [28],98%
same,MBC,Helicobacter pylori [14],12.5 µg/mL
same,Activity,AGS [2],Non-toxic
COc1ccccc1-c1nc2cc(C)ccc2n1Cc1cc(OC)c(OC)c(OC)c1,zone of inhibition at 100 µg/mL,[1],21 mm
same,Activity,AGS [2],Toxic
COc1cc(Cn2c(-c3ccccc3)nc3ccc(Cl)cc32)cc(OC)c1OC,zone of inhibition at 100 µg/mL,[1],14 mm
CC1(C)S[C@@H]2[C@H](NC(=O)[C@H](N)c3ccc(O)cc3)C(=O)N2[C@H]1C(=O)O [AMOXICILLIN],zone of inhibition at 50 µg/mL,[29],14 mm
COc1cc(Cn2c(-c3cccc(C)c3)nc3cc(C)ccc32)cc(OC)c1OC,zone of inhibition at 100 µg/mL,[1],19 mm
COc1ccc(-c2nc3cc(Cl)ccc3n2Cc2cc(OC)c(OC)c(OC)c2)cc1,zone of inhibition at 100 µg/mL,[1],11 mm
COc1cc(Cn2c(-c3c(F)cccc3F)nc3cc(C)ccc32)cc(OC)c1OC,zone of inhibition at 100 µg/mL,[1],24 mm
same,Activity,AGS [2],Toxic
COc1cc(Cn2c(-c3ccccc3)nc3cc(F)ccc32)cc(OC)c1OC,zone of inhibition at 100 µg/mL,[1],17 mm
COc1cc(Cn2c(-c3ccccc3)nc3cc(C)c(C)cc32)cc(OC)c1OC,zone of inhibition at 100 µg/mL,[1],16 mm
COc1cccc(-c2nc3cc(C)ccc3n2Cc2cc(OC)c(OC)c(OC)c2)c1,zone of inhibition at 100 µg/mL,[1],0 mm
COc1cc(Cn2c(-c3ccc(C#N)cc3)nc3cc(C)ccc32)cc(OC)c1OC,zone of inhibition at 100 µg/mL,[1],12 mm
COc1ccc(-c2nc3ccc(Cl)cc3n2Cc2cc(OC)c(OC)c(OC)c2)cc1,zone of inhibition at 100 µg/mL,[1],12 mm
COc1cc(Cn2c(-c3ccc4ccccc4c3)nc3cc(C)ccc32)cc(OC)c1OC,zone of inhibition at 100 µg/mL,[1],0 mm
CC[C@H]1OC(=O)[C@H](C)[C@@H](O[C@H]2C[C@@](C)(OC)[C@@H](O)[C@H](C)O2)[C@H](C)[C@@H](O[C@@H]2O[C@H](C)C[C@H](N(C)C)[C@H]2O)[C@](C)(OC)C[C@@H](C)C(=O)[C@H](C)[C@@H](O)[C@]1(C)O [CLARITHROMYCIN],zone of inhibition at 50 µg/mL,[29],21 mm
COc1cc(Cn2c(-c3ccc(Cl)cc3Cl)nc3cc(C)ccc32)cc(OC)c1OC,zone of inhibition at 100 µg/mL,[1],11 mm
COc1cc(Cn2c(-c3ccc(Cl)c(Cl)c3)nc3cc(C)ccc32)cc(OC)c1OC,zone of inhibition at 100 µg/mL,[1],9 mm
COc1cc(Cn2c(-c3cc(F)ccc3F)nc3cc(C)ccc32)cc(OC)c1OC,zone of inhibition at 100 µg/mL,[1],11 mm
COc1cc(Cn2c(-c3cccc(F)c3)nc3cc(C)ccc32)cc(OC)c1OC,zone of inhibition at 100 µg/mL,[1],0 mm
COc1ccc2nc(-c3ccccc3)n(Cc3cc(OC)c(OC)c(OC)c3)c2c1,zone of inhibition at 100 µg/mL,[1],0 mm
COc1cc(Cn2c(-c3ccc(F)cc3)nc3cc(C)ccc32)cc(OC)c1OC,zone of inhibition at 100 µg/mL,[1],17 mm
COc1ccc(-c2nc3cc(C)ccc3n2Cc2cc(OC)c(OC)c(OC)c2)cc1,zone of inhibition at 100 µg/mL,[1],22 mm
same,Activity,AGS [2],Toxic
COc1cc(Cn2c(-c3ccccc3Cl)nc3cc(C)ccc32)cc(OC)c1OC,zone of inhibition at 100 µg/mL,[1],21 mm
same,Activity,AGS [2],Toxic
